Results on 18 molecules are retold here after patent publication EP1793006A2, “Nucleic acid ligands and improved methods for producing the same” (priority 1993, dated 1995).

Where a SMILES comes first, the peptide text is derived from it. The star is where a group is joined. pNA = O=[N+]([O-])c1ccc(N*)cc1; MeOSuc = COC(=O)CCC(=O)*

For one experiment, the target named is TCT8-4 RNA. In words: Competition binding of xanthine derivatives, equilibrium filtration. As to conditions: for Ki: 1 µM 14C-theophylline, 3.3 µM TCT8-4 RNA, read-out: Kc; for Kc(c)/Kc(t): competitor relative to theophylline. On the procedure:
An attractive feature of a small molecule-RNA interaction is the opportunity to readily investigate quantitatively the relative contribution of various constituents of the small molecule to the overall binding. Competition binding experiments were conducted with a variety of xanthine derivatives and related compounds. In these experiments, the effect of competitor added at various concentrations on the ^14C-theophylline-TCT8-4 RNA interaction was measured. Of particular interest were the roles of CH3 residues at the 1, 3, and 7 positions; these were assessed both individually and in combination. In addition, 1,3-dimethyluric acid probes the 8-position, as it contains a keto oxygen there relative to theophylline, and hypoxanthine, lacking the 2-position keto oxygen of xanthine, permit assessment of this constituent.
Equilibrium filtration assays were performed by the addition of various concentrations of the potential competitor to 1 µM [^14C]-theophylline and 3.3 µM TCT8-4 RNA (SEQ ID NO:249) in a 150 µl reaction mixture containing 100 mM HEPES buffer. Each reaction was performed as described in Example 23. Competition data were fit using a standard competition equation and fitting procedure (Gill et al. (1991) J. Mol. Biol. 220:307) assuming a 1:1 stoichiometry of competitor to RNA. […] From such data a competitor dissociation constant (Kc) was obtained. Under the condition where theophylline and the specific competitor bind to the same site, Kc = Kd.

For a further experiment, the target named is T1, T7 RNA polymerase (Escherichia phage T7, UniProt P00573).
T1 construct: purchased NEB
The experiment is described as follows: Incorporation of modified nucleotide triphosphates into RNA by T7 RNA polymerase transcription. The settings on record: for efficiency of transcription (incorporation) as compared to UTP: three hours, 2 mM ribonucleotide triphosphates, 100 nM double-stranded DNA template, 5 units/ul T7 RNA polymerase. In kind it is biochemical. As to the method: Incorporation of 5-modified uridines into RNA. Four prototypic 5-modified uridines, 5-AA-UTP, 5-F-12-UTP, 5-Dig-11-UTP, and 5-Br-UTP (shown in Figure 2) were incorporated into RNA by the T7.RNA polymerase under standard transcription conditions (40 mM Tris-Cl, pH 8.0, 12 mM MgCl2, 5 mM DTT, 1 mM spermidine, 0.002% Triton X-100, 4% PEG, 37°C). Autoradiogram of a 15% denaturing polyacrylamide gel showing products of transcription done with UTP, 5-AA-UTP, and 5-Br-UTP is shown in Figure 3. The efficiency of transcription was estimated from the total amounts of ^32P-radiolabelled transcript produced after three hours of incubation with 2 mM ribonucleotide triphosphates, 100 nM double-stranded DNA template, and 5 units/ul of T7 RNA polymerase (NEB). 5-AA-UTP, 5-F-12-UTP, 5-Dig-11-UTP, and 5-Br-UTP were incorporated with 28%, 51%, 23%, and 50% efficiency, respectively, as compared to UTP. No transcription was detectable when UTP was omitted from the transcription mixture.
The 2'-amino group of 2'-amino,2'-deoxyuridine is trifluoroacetylated (Imazawa et al. (1979) J. Org. Chem. 44:2039) in 82% yield. This intermediate is phosphorylated at the 5'-position (Ludwig and Eckstein (1989) J. Org. Chem. 54:631) in 61% yield. The 5-iodo derivative of the 2'-amino,2'-deoxyuridine 5'-triphosphate was prepared by mercuration (Dale et al. (1975) Biochemistry 14:2447) in a single step.
RGD-UTP transcription and purification. RGD-UTP was used in a T7 RNA polymerase reaction by direct substitution for normal UTP, and gave yields that were at least 50% of those obtainable with UTP. The concentration of RGD-UTP and other NTPs was 1 mM; the DNA template contained 5' and 3' fixed regions flanking a 30 base pair random sequence. The RNA transcript was purified by adsorption onto an anion exchange column (Mono Q)in a phosphate buffer containing 6 M urea and 50% formamide, and eluted with a gradient to 1 M NaCl (Figure 16). RGD-RNA eluted as one major peak from the column at a position in the gradient slightly ahead of the elution position of an equivalent RNA transcript made with normal UTP, consistent with the altered charge and perhaps altered conformation of the derivatized RNA.

The target in experiment [1] is T2, Human neutrophil elastase (Homo sapiens, UniProt P08246).
T2 construct: purchased Athens Research and Technology, Athens, Georgia
T2 sequence (P08246 30-267): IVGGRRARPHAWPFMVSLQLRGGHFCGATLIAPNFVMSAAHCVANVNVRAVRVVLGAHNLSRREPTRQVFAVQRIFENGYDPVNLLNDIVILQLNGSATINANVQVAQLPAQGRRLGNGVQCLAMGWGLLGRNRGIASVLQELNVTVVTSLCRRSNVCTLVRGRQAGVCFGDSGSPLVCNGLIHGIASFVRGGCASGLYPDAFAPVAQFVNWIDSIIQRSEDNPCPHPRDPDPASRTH
In words: Elastase inhibition assay with chromogenic tetrapeptide substrate. In kind it is biochemical. The settings on record: Lineweaver-Burk plot. An excerpt: Elastase inhibition assay. The assay for elastase inhibition is based on the use of a chromogenic tetrapeptide substrate. […] The rate of p-nitroanilide generation in the absence of inhibitor was used as the control.
Elastase Inhibition Assay. The assay for elastase inhibition is based on the use of a chromogenic tetrapeptide substrate. […] The rate of p-nitroanilide generation in the absence of inhibitor was used as the negative control; the positive control contained the irreversible inhibitor N-methoxysuccinyl-Ala-Ala-Pro-Val-chloromethyl ketone. OD values were plotted against time, and the slope used to determine the rate of enzyme activity.

In experiment [2] the target is Human neutrophil elastase (human) (UniProt P08246). The experiment is described as follows: elastase inhibition assay with chromogenic substrate, Lineweaver-Burk plot (Figure 22).

T1 sequence (P00573 whole entry): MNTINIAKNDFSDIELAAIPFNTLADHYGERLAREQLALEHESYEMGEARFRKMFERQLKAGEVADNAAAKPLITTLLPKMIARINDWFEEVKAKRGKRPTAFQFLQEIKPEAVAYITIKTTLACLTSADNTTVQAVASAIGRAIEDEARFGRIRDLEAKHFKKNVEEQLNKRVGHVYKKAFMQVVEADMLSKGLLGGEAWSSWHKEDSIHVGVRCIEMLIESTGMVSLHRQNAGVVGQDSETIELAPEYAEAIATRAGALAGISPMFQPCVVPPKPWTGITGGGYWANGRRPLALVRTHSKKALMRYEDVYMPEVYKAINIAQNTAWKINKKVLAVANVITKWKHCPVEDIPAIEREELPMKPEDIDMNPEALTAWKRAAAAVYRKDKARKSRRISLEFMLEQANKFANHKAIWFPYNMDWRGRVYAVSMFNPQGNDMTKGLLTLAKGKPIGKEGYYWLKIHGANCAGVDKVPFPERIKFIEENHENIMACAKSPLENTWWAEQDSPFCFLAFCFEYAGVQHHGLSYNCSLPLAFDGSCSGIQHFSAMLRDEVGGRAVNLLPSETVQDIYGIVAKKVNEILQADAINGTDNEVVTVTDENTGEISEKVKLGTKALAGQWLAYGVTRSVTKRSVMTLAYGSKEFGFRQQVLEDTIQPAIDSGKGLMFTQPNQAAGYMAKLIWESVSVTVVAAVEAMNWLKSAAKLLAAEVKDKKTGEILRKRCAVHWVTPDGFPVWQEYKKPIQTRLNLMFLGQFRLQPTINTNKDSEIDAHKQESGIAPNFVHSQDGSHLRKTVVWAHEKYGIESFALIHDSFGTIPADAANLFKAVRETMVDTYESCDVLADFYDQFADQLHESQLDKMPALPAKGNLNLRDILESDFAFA

With “1-carboxypropyl theophylline [CP-Theophylline]”, on TCT8-4 RNA, the Ki stood at 0.93 ± 0.2 µM and the “Kc(c)/Kc(t)” value was found to be 2.9.

For the molecule “5-digoxygenin-11-uridine triphosphate [5-Dig-11-UTP]”, the “efficiency of transcription (incorporation) as compared to UTP” value (“efficiency … compared to UTP” below) on T7 RNA polymerase was 23%.

“5-fluorescein-12-uridine triphosphate [5-F-12-UTP]”: the “efficiency … compared to UTP” value at T7 RNA polymerase was 51%.

For `Cn1c(=O)[nH]c2nc[nH]c2c1=O` [1-methylxanthine], at TCT8-4 RNA, the Ki came to 9 ± 0.3 µM and the “Kc(c)/Kc(t)” value was determined as 28.

Regarding `N[C@@H]1[C@H](O)[C@@H](COP(=O)(O)OP(=O)(O)OP(=O)(O)O)O[C@H]1n1ccc(=O)[nH]c1=O` [2'-amino,2'-deoxyuridine 5'-triphosphate], the “substrate for T7 RNA polymerase” value on T7 RNA polymerase is “substrates for T7 RNA polymerase”.

For `Cn1cnc2c1c(=O)[nH]c(=O)n2C` [3,7-dimethylxanthine], in the experiment on TCT8-4 RNA, the “recognition by TCT8-4 RNA” value was “recognized poorly”, the Ki is greater than 500 µM and the “Kc(c)/Kc(t)” value is listed as greater than 1500.

Regarding `Cn1c(=O)[nH]c(=O)c2[nH]cnc21` [3-methylxanthine], in the experiment with TCT8-4 RNA, the “competition, fold better relative to xanthine” value is listed as “approximately 5 fold”; the Ki was 2 ± 0.7 µM; the “Kc(c)/Kc(t)” value came to 6.3.

Take `NCC=Cc1cn(C2OC(COP(=O)(O)OP(=O)(O)OP(=O)(O)O)C(O)C2O)c(=O)[nH]c1=O` (stereo not shown) [5-AA-UTP, 5-(3-aminoallyl)uridine triphosphate]: the “efficiency … compared to UTP” value on T7 RNA polymerase turned out to be 28%.

`O=c1[nH]c(=O)n([C@@H]2O[C@H](COP(=O)(O)OP(=O)(O)OP(=O)(O)O)[C@@H](O)[C@H]2O)cc1Br` [5-Br-UTP, 5-bromouridine triphosphate]: the “efficiency … compared to UTP” value at T7 RNA polymerase came to 50%.

On to `N[C@@H]1[C@H](O)[C@@H](COP(=O)(O)OP(=O)(O)OP(=O)(O)O)O[C@H]1n1cc(I)c(=O)[nH]c1=O` [5-iodo,2'-amino,2'-deoxyuridine 5'-triphosphate], for which the “substrate for T7 RNA polymerase” value on T7 RNA polymerase is listed as “substrates for T7 RNA polymerase”.

Turning to `Cn1cnc2[nH]c(=O)[nH]c(=O)c21` [7-methylxanthine], in the experiment with TCT8-4 RNA, the “competition, fold less efficient than xanthine” value is “at least 1500 fold”; the Ki is greater than 500 µM; the “Kc(c)/Kc(t)” value is given as greater than 1500.

As for `Cn1c(=O)c2c(ncn2C)n(C)c1=O` [Caffeine, 1,3,7-trimethylxanthine], in the experiment with TCT8-4 RNA, the “recognition by TCT8-4 RNA” value is given as “extremely poor competitor”, the Ki was 3500 ± 1500 µM and the “Kc(c)/Kc(t)” value is given as 10900.

In the case of `O=c1[nH]cnc2nc[nH]c12` [Hypoxanthine], in the experiment on TCT8-4 RNA, the “competition, fold less efficient than xanthine” value was “approximately 5 fold”; the Ki stood at 49 ± 10 µM; the “Kc(c)/Kc(t)” value is listed as 153.

As to `Cn1c(=O)c2[nH]cnc2n(C)c1=O` [Theophylline, 1,3-dimethylxanthine], on TCT8-4 RNA, the Ki amounted to 0.32 ± 0.13 µM and the “Kc(c)/Kc(t)” value is reported as 1. For the same molecule, the Kd at TCT8-4 RNA (read-out: Kd for theophylline to RNA used for the competition fit) came out at 0.45 µM.

For the molecule `O=c1[nH]c(=O)c2[nH]cnc2[nH]1` [Xanthine], in the experiment with TCT8-4 RNA, the “competition, fold less effective than theophylline” value is “about 23 fold”; the Ki was 8.5 ± 0.4 µM; the “Kc(c)/Kc(t)” value was 27.

In the case of `COC(=O)CCC(=O)N[C@@H](C)C(=O)N[C@@H](C)C(=O)N1CCC[C@H]1C(=O)N[C@H](C(=O)Nc1ccc([N+](=O)[O-])cc1)C(C)C` [substrate, N-methoxysuccinyl-Ala-Ala-Pro-Val-p-nitroanilide] (MeOSuc-AAPV-pNA), in experiment [1], the Km is 160 µM.

Regarding N-methoxysuccinyl Ala-Ala-Pro-Val, the Ki in experiment [1] was determined as 920 µM.

In experiment [2], “N-methoxysuccinyl Ala-Ala-Pro-Val (SEQ ID NO:44) (peptide)” came in with a Ki of 920 µM.
